Data from ChEMBL document CHEMBL4382202, “1-(2-Hydroxybenzoyl)-thiosemicarbazides are promising antimicrobial agents targeting d-alanine-d-alanine ligase in bacterio” (Eur J Med Chem, 2018).
Activity calls are given as the source filed them. No cut-off for these calls is given here.

What was measured:
[1] = target: T1, D-alanine--D-alanine ligase (Enterococcus faecalis (strain ATCC 700802 / V583)) (UniProt Q47758); assay: Inhibition of Enterococcus faecalis JH2-2 C-terminal 6His-tagged DdlB expressed in Escherichia coli LMG194 at 10 uM preincubated for 30 mins followed by substrate addition and measured after 20 mins by Biomol Green reagent assay relative to control
T1 sequence (whole entry): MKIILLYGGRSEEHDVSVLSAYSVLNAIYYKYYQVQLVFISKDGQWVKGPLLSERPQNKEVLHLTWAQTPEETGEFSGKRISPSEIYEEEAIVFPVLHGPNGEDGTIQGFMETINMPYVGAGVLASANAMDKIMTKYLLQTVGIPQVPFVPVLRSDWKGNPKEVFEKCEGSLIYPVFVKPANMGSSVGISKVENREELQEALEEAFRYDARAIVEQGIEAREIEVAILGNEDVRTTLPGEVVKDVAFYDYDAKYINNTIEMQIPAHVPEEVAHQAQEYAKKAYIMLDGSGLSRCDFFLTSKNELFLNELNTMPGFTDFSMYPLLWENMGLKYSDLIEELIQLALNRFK

[2] = target: T1, D-alanine--D-alanine ligase (Enterococcus faecalis (strain ATCC 700802 / V583)); assay: Inhibition of Enterococcus faecalis JH2-2 C-terminal 6His-tagged DdlB expressed in Escherichia coli LMG194 preincubated for 30 mins followed by substrate addition and measured after 20 mins in presence of 0.01% Triton X-100 by Biomol Green reagent assay
[3] = target: T1, D-alanine--D-alanine ligase (Enterococcus faecalis (strain ATCC 700802 / V583)); assay: Inhibition of Enterococcus faecalis JH2-2 C-terminal 6His-tagged DdlB expressed in Escherichia coli LMG194 at IC50 after 10 mins by Biomol Green reagent assay relative to control
[4] = target: T1, D-alanine--D-alanine ligase (Enterococcus faecalis (strain ATCC 700802 / V583)); assay: Inhibition of Enterococcus faecalis JH2-2 C-terminal 6His-tagged DdlB expressed in Escherichia coli LMG194 at IC50 after 90 mins by Biomol Green reagent assay relative to control
[5] = target: T1, D-alanine--D-alanine ligase (Enterococcus faecalis (strain ATCC 700802 / V583)); assay: Inhibition of Enterococcus faecalis JH2-2 C-terminal 6His-tagged DdlB expressed in Escherichia coli LMG194 assessed as residual activity at 10 uM preincubated for 30 mins followed by substrate addition and measured after 20 mins by Biomol Green reagent assay relative to control
Escherichia coli = assay: Antibacterial activity against Escherichia coli ATCC 25922 after 18 to 24 hrs by microdilution assay; format: functional, organism-based
Pseudomonas aeruginosa = assay: Antibacterial activity against Pseudomonas aeruginosa PAO1 after 18 to 24 hrs by microdilution assay; format: functional, organism-based
Klebsiella pneumoniae = assay: Antibacterial activity against Klebsiella pneumoniae ATCC 700603 after 18 to 24 hrs by microdilution assay; format: functional, organism-based

Activity [5] | SMILES | inhibition [1] | further results
 | O=C(NNC(=S)Nc1ccccc1)c1ccccc1O | > 30% | inhibition [2]: Active; inhibition [3]: 60%; inhibition [4]: > 90%
 | O=C(NNC(=S)Nc1ccccc1F)c1ccccc1O | > 30% | 
 | COc1ccc(NC(=S)NNC(=O)c2ccccc2O)cc1 | > 30% | 
100% | O=C(NNC(=S)Nc1ccccc1F)c1ccccc1 |  | 
 | O=C(NNC(=S)Nc1cccc(Cl)c1)c1ccccc1O | > 30% | MIC (Escherichia coli): inactive; MIC (Pseudomonas aeruginosa): inactive; MIC (Klebsiella pneumoniae): inactive
100% | O=C(NNC(=S)Nc1ccc(Cl)c(Cl)c1)c1ccc(F)cc1 |  | 
100% | O=C(NNC(=S)Nc1ccc(Cl)c(Cl)c1)c1cccc(O)c1 |  | 
100% | O=C(NNC(=O)c1ccccc1)Nc1ccc(Cl)c(Cl)c1 |  | 
 | N#Cc1ccc(NC(=S)NNC(=O)c2ccccc2O)cc1 | > 30% | 
 | O=C(NNC(=S)Nc1cccnc1)c1ccccc1O | 30% | 
100% | O=C(NNC(=S)Nc1ccccc1Cl)c1ccccc1 |  | 
100% | O=C(NNC(=S)Nc1ccc(Cl)cc1)c1ccccc1 |  | 
100% | O=C(NNC(=S)Nc1cccc(F)c1)c1ccccc1 |  | 
 | O=C(NNC(=S)NCCCN1CCOCC1)c1ccccc1O | 30% | 
 | O=C(NNC(=S)Nc1cccc(F)c1)c1ccccc1O | > 30% | 
100% | O=C(NNC(=S)Nc1ccc(Cl)c(Cl)c1)c1ccccc1 |  | 
100% | O=C(NNC(=O)c1ccccc1O)Nc1ccc(Cl)c(Cl)c1 |  | 
100% | O=C(NNC(=S)Nc1ccc(Cl)c(Cl)c1)c1ccc(O)cc1 |  | 
 | O=C(NNC(=S)Nc1ccc(Cl)c(Cl)c1)c1cc2ccccc2cc1O | > 30% | 
100% | O=C(NNC(=S)Nc1cccc(Cl)c1)c1ccccc1 |  | 

Activity [5] | SMILES | inhibition [1] | further results
100% | O=C(NNC(=S)Nc1ccc(F)cc1)c1ccccc1 |  | 
 | O=C(NNC(=S)Nc1ccc(Cl)cc1)c1ccccc1O | > 30% | 
 | O=C(NNC(=S)Nc1ccccc1Cl)c1ccccc1O | > 30% | MIC (Escherichia coli): inactive; MIC (Pseudomonas aeruginosa): inactive; MIC (Klebsiella pneumoniae): inactive
 | O=C(NNC(=S)Nc1ccc(OC(F)(F)F)cc1)c1ccccc1O | > 30% | MIC (Escherichia coli): inactive; MIC (Pseudomonas aeruginosa): inactive; MIC (Klebsiella pneumoniae): inactive
 | Nc1ccc(C(=O)NNC(=S)Nc2ccc(Cl)c(Cl)c2)c(O)c1 | > 30% | 
100% | COc1ccccc1C(=O)NNC(=S)Nc1ccc(Cl)c(Cl)c1 |  | 
100% | O=C(NNC(=S)Nc1ccc(Cl)c(Cl)c1)c1ccccc1F |  | 
100% | O=C(NNC(=S)Nc1ccc([N+](=O)[O-])cc1)c1ccc(O)cc1 |  | 
100% | O=c1c2ccccc2ncn1NC(=S)Nc1ccccc1 |  | 
100% | O=C(NNC(=S)Nc1ccc(Cl)c(Cl)c1)c1cccc(F)c1 |  | 
 | CCCCCNC(=S)NNC(=O)c1ccccc1O | > 30% | 
 | O=C(NNC(=S)Nc1ccc(Cl)c(Cl)c1)c1ccc(I)cc1O | > 30% | 
 | CC(=O)c1ccc(NC(=S)NNC(=O)c2ccccc2O)cc1 | > 30% | 
 | COc1ccccc1NC(=S)NNC(=O)c1ccccc1O | > 30% | 
 | N[C@@H]1CONC1=O | > 30% | 
 | O=C(NNC(=S)Nc1ccc(F)cc1)c1ccccc1O | > 30% | 
 | O=C(NNC(=S)Nc1cccc(I)c1)c1ccccc1O | > 30% | 
 | O=C(NNC(=S)Nc1ccc(OCc2ccccc2)cc1)c1ccccc1O | > 30% | 
 | O=C(NNC(=S)Nc1ccc(Cl)cc1Cl)c1ccccc1O | > 30% | MIC (Escherichia coli): inactive; MIC (Pseudomonas aeruginosa): inactive; MIC (Klebsiella pneumoniae): inactive
 | O=C(NNC(=S)Nc1cccc2ccccc12)c1ccccc1O | > 30% | 
